# Experimental data taken from US10945992B1, “Dosage forms of rofecoxib and related methods” (Tremeau Pharmaceuticals, Inc., priority 2019, dated 2021).
# Where two headings read alike, the source gives them in different places.
# Test: TRM-201-PK-102 single-dose four-period crossover pharmacokinetic study, fasted healthy subjects
# Type: in vivo, human
# Details: human, plasma, oral
# Experimental: A Single-Dose, Open-Label, Phase 1, Four-Period Crossover Pharmacokinetic Study of TRM-201 (Rofecoxib) 12.5 mg, 17.5 mg, 20 mg and 25 mg Administered to Healthy Subjects in a Fasting State, with Comparison to Historical Pharmacokinetic Parameters of Previously Marketed Rofecoxib (“TRM-201-PK-102” or “102 PK Study”)
# This was a single-center, open-label four-period crossover PK study of TRM-201. The study included 24 subjects who received TRM-201 as a single dose of 12.5 mg, 17.5 mg, 20 mg and 25 mg to assess the PK of TRM-201 in healthy volunteers under fasted conditions. Subjects were randomized to one of four treatment sequences. The PK data from the current study along with the data from the TRM-201-PK-101 study (Example 4) was used to compare to historical pharmacokinetic parameters of previously marketed rofecoxib, all in a fasted state.
# In each of the four dosing periods, subjects fasted overnight for at least 10 hours before study drug dosing. While fasting, subjects had nothing to eat and only water to drink. Water was permitted as desired, except for the period between 1 hour before and 1 hour after study drug dosing (excepting as permitted for dosing). After the 2-hour PK blood sample, subjects were allowed one 250-mL cup of clear apple juice. After the 4-hour PK blood sample, subjects were served a light lunch. Following the light lunch, subjects received standardized meals according to the clinic's standard procedures that were scheduled at consistent times and at least 15 minutes before or 15 minutes after PK sampling time points. Blood was withdrawn for PK analysis at predefined time points. For each dosing period the last time point was 120 hours after dosing with study drug (Day 6). After the 120 hour PK sample, the EOP procedures was completed, subjects remained in-clinic for the in-between dose period day (Days 7, 14, and 21) and began the next dosing period starting with an overnight fast for at least 10 hours on Day −1 of the subsequent dosing period. Pharmacokinetic and safety endpoints were evaluated.
# The study drug, TRM-201, was an immediate-release tablet that contained 12.5 mg rofecoxib, 17.5 mg rofecoxib, 20 mg rofecoxib or 25 mg rofecoxib. The 7.25-mm diameter tablets were off-white, round, and uncoated with no markings. TRM-201 tablets were for oral administration.
# For each sample, approximately 3 mL of blood were drawn. The samples were obtained by a straight stick or via an in-dwelling intravenous (IV) catheter in a forearm vein. Additional details for the collection, processing, storage, and shipping of PK samples were provided in the study manual.
# Pharmacokinetic samples will be analyzed using a validated assay for rofecoxib in human plasma. Assay results and validation details will be provided in a separate bioanalytical report. The following PK parameters for rofecoxib will be calculated as primary endpoints using standard noncompartmental methods: AUC0-∞ and Cmax. Secondary endpoints include Tmax, and t1/2. Additional PK parameters (e.g., CL/F, and Vd/F) will also be calculated using standard noncompartmental methods.
# Individual plasma concentrations for rofecoxib and PK sampling time deviation data will be presented in a data listing. Plasma concentration data will be summarized by time point using the following descriptive statistics: number of subjects, arithmetic mean, SD, coefficient of variation (CV), geometric mean, natural-log-scale SD, geometric CV, median, minimum, and maximum. Individual plasma concentration versus actual time profiles were presented on both linear and semilogarithmic scales. Additionally, arithmetic mean concentration versus scheduled time profiles were presented on linear scales and geometric means on semilogarithmic scales.
# The PK parameters of rofecoxib were analyzed based on the actual sampling times. […]
# [1] = 12.5 mg, read-out: arithmetic mean plasma concentration
# [2] = 12.5 mg, read-out: geometric mean plasma concentration
# [3] = 17.5 mg, read-out: geometric mean plasma concentration
structure (smiles),measurement,setting,value
"CS(=O)(=O)c1ccc(C2=C(c3ccccc3)C(=O)OC2)cc1 [TRM-201, 4-[4-(methylsulfonyl)phenyl]-3-phenyl-2(5H)-furanone]",Cmax,"12.5 mg, 102 study, body weight 77.1-90 kg, read-out: arithmetic mean Cmax",127 ng/mL
same,AUC(0-inf),"12.5 mg, 102 study, body weight 77.1-90 kg, read-out: geometric mean AUC0-∞",1690 ng·h/mL
same,Cmax,"12.5 mg, 102 study, body weight 77.1-90 kg, read-out: geometric mean Cmax",125 ng/mL
same,AUC(0-inf),"12.5 mg, 102 study, non-Hispanic or non-Latino subjects, read-out: arithmetic mean AUC0-∞",1820 ng·h/mL
same,Cmax,"12.5 mg, 102 study, non-Hispanic or non-Latino subjects, read-out: arithmetic mean Cmax",146 ng/mL
same,AUC(0-inf),"12.5 mg, 102 study, non-Hispanic or non-Latino subjects, read-out: geometric mean AUC0-∞",1680 ng·h/mL
same,Cmax,"12.5 mg, 102 study, non-Hispanic or non-Latino subjects, read-out: geometric mean Cmax",141 ng/mL
same,concentration at 15 minutes,[1],1.03 ng/mL
same,concentration at 15 minutes,[2],0.529 ng/mL
same,concentration at 45 minutes,[1],56.8 ng/mL
same,concentration at 45 minutes,[2],33.9 ng/mL
same,AUC(0-inf),"17.5 mg, 102 study only, read-out: arithmetic mean AUC0-∞",3290 ng·h/mL
same,Cmax,"17.5 mg, 102 study only, read-out: arithmetic mean Cmax",236 ng/mL
same,AUC(0-inf),"17.5 mg, 102 study only, read-out: geometric mean AUC0-∞",3110 ng·h/mL
same,Cmax,"17.5 mg, 102 study only, read-out: geometric mean Cmax",224 ng/mL
same,AUC(0-inf),"17.5 mg, 102 study, 18-40 years, read-out: arithmetic mean AUC0-∞",2820 ng·h/mL
same,Cmax,"17.5 mg, 102 study, 18-40 years, read-out: arithmetic mean Cmax",237 ng/mL
same,AUC(0-inf),"17.5 mg, 102 study, 18-40 years, read-out: geometric mean AUC0-∞",2750 ng·h/mL
same,Cmax,"17.5 mg, 102 study, 18-40 years, read-out: geometric mean Cmax",229 ng/mL
same,AUC(0-inf),"17.5 mg, 102 study, 41-52 years, read-out: arithmetic mean AUC0-∞",3520 ng·h/mL
same,Cmax,"17.5 mg, 102 study, 41-52 years, read-out: arithmetic mean Cmax",232 ng/mL
same,AUC(0-inf),"17.5 mg, 102 study, 41-52 years, read-out: geometric mean AUC0-∞",3160 ng·h/mL
same,Cmax,"17.5 mg, 102 study, 41-52 years, read-out: geometric mean Cmax",213 ng/mL
same,AUC(0-inf),"17.5 mg, 102 study, 53-60 years, read-out: arithmetic mean AUC0-∞",3510 ng·h/mL
same,Cmax,"17.5 mg, 102 study, 53-60 years, read-out: arithmetic mean Cmax",239 ng/mL
same,AUC(0-inf),"17.5 mg, 102 study, 53-60 years, read-out: geometric mean AUC0-∞",3470 ng·h/mL
same,Cmax,"17.5 mg, 102 study, 53-60 years, read-out: geometric mean Cmax",230 ng/mL
same,AUC(0-inf),"17.5 mg, 102 study, Black or African-American subjects, read-out: arithmetic mean AUC0-∞",2840 ng·h/mL
same,Cmax,"17.5 mg, 102 study, Black or African-American subjects, read-out: arithmetic mean Cmax",217 ng/mL
same,AUC(0-inf),"17.5 mg, 102 study, Black or African-American subjects, read-out: geometric mean AUC0-∞",2800 ng·h/mL
same,Cmax,"17.5 mg, 102 study, Black or African-American subjects, read-out: geometric mean Cmax",211 ng/mL
same,AUC(0-inf),"17.5 mg, 102 study, Hispanic or Latino subjects, read-out: arithmetic mean AUC0-∞",3520 ng·h/mL
same,Cmax,"17.5 mg, 102 study, Hispanic or Latino subjects, read-out: arithmetic mean Cmax",258 ng/mL
same,AUC(0-inf),"17.5 mg, 102 study, Hispanic or Latino subjects, read-out: geometric mean AUC0-∞",3330 ng·h/mL
same,Cmax,"17.5 mg, 102 study, Hispanic or Latino subjects, read-out: geometric mean Cmax",243 ng/mL
same,AUC(0-inf),"17.5 mg, 102 study, White subjects, read-out: arithmetic mean AUC0-∞",3400 ng·h/mL
same,Cmax,"17.5 mg, 102 study, White subjects, read-out: arithmetic mean Cmax",241 ng/mL
same,AUC(0-inf),"17.5 mg, 102 study, White subjects, read-out: geometric mean AUC0-∞",3200 ng·h/mL
same,Cmax,"17.5 mg, 102 study, White subjects, read-out: geometric mean Cmax",228 ng/mL
same,AUC(0-inf),"17.5 mg, 102 study, body weight 47-70 kg, read-out: arithmetic mean AUC0-∞",3180 ng·h/mL
same,Cmax,"17.5 mg, 102 study, body weight 47-70 kg, read-out: arithmetic mean Cmax",261 ng/mL
same,AUC(0-inf),"17.5 mg, 102 study, body weight 47-70 kg, read-out: geometric mean AUC0-∞",2930 ng·h/mL
same,Cmax,"17.5 mg, 102 study, body weight 47-70 kg, read-out: geometric mean Cmax",242 ng/mL
same,AUC(0-inf),"17.5 mg, 102 study, body weight 70.1-77 kg, read-out: arithmetic mean AUC0-∞",3890 ng·h/mL
same,Cmax,"17.5 mg, 102 study, body weight 70.1-77 kg, read-out: arithmetic mean Cmax",254 ng/mL
same,AUC(0-inf),"17.5 mg, 102 study, body weight 70.1-77 kg, read-out: geometric mean AUC0-∞",3730 ng·h/mL
same,Cmax,"17.5 mg, 102 study, body weight 70.1-77 kg, read-out: geometric mean Cmax",246 ng/mL
same,AUC(0-inf),"17.5 mg, 102 study, body weight 77.1-90 kg, read-out: arithmetic mean AUC0-∞",2910 ng·h/mL
same,Cmax,"17.5 mg, 102 study, body weight 77.1-90 kg, read-out: arithmetic mean Cmax",200 ng/mL
same,AUC(0-inf),"17.5 mg, 102 study, body weight 77.1-90 kg, read-out: geometric mean AUC0-∞",2850 ng·h/mL
same,Cmax,"17.5 mg, 102 study, body weight 77.1-90 kg, read-out: geometric mean Cmax",194 ng/mL
same,AUC(0-inf),"17.5 mg, 102 study, non-Hispanic or non-Latino subjects, read-out: arithmetic mean AUC0-∞",3050 ng·h/mL
same,Cmax,"17.5 mg, 102 study, non-Hispanic or non-Latino subjects, read-out: arithmetic mean Cmax",214 ng/mL
same,AUC(0-inf),"17.5 mg, 102 study, non-Hispanic or non-Latino subjects, read-out: geometric mean AUC0-∞",2910 ng·h/mL
same,Cmax,"17.5 mg, 102 study, non-Hispanic or non-Latino subjects, read-out: geometric mean Cmax",207 ng/mL
same,concentration at 15 minutes,[3],0.669 ng/mL
same,concentration at 45 minutes,[3],51.6 ng/mL
